As a reminder, the IC50 is the concentration that inhibits the measured activity by half.

Each structure is given as a SMILES string. Positions of bridges follow the written chain, without caps; N, C: chain ends. Non-standard residues stand in square brackets, D forms with d. Residues, ends and D or L forms follow the SMILES beside them. Bta = N[C@@H](Cc1csc2ccccc12)C(=O)O; Hyp = O=C(O)[C@@H]1C[C@@H](O)CN1; NMeNle = CCCC[C@H](NC)C(=O)O; NMeA = CN[C@@H](C)C(=O)O; Orn = NCCC[C@H](N)C(=O)O; Dab = NCC[C@H](N)C(=O)O; Dap = NC[C@H](N)C(=O)O A value given as a limit tells only on which side of the number the result lay.

The values below come from patent US9850283B2, “Macrocyclic inhibitors of the PD-1/PD-L1 and CD80(B7-1)/PD-L1 protein/protein interactions” (BRISTOL-MYERS SQUIBB COMPANY, priority 2013, dated 2017).

Assay [1] deals with T1, LK35.2-hPD-L1 cells / PE-labeled PD-1-Ig (Homo sapiens, UniProt Q9NZQ7).
T1 construct: expressed in transfected cells; host or cells: LK35.2 mouse B cell line
T1 sequence (Q9NZQ7 19-290): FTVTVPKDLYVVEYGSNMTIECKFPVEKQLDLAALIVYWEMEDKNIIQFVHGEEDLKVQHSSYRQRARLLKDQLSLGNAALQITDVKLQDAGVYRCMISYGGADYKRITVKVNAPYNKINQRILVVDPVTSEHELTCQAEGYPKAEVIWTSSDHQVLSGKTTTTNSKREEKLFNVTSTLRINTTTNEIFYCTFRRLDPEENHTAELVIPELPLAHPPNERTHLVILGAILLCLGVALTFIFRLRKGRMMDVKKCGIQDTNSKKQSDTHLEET
Description: LK35.2-hPD-L1 cell binding high-content screening assay. The assay is classed as cell-based. To be noted: cluster symbol; cell line of CBA not given (LK35.2-hPD-L1 or 293T-hPD-L1); read-out: CBA IC50 cluster. In a few lines: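 Mouse LK35.2 B cells stably overexpressing human PD-L1 were cultured overnight in RPMI with 10% FCS, then given compound and PE-labeled human PD-1-Ig (1 nM final) for 1 h at 37 °C. After three dPBS washes, bound fluorescence was quantified by high-content imaging.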

The next assay concerns the target T2, Human PD-L1/PD-1 (Homo sapiens, UniProt Q9NZQ7).
T2 construct: made in house; host or cells: HEK293T
Nature of the assay: HTRF PD-1-Ig/PD-L1-His binding assay (human PD-L1). To be noted: cluster symbol; read-out: HTRF IC50 cluster. In a few lines:
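The time-resolved fluorescence signal comes from Eu-cryptate anti-Ig (1 nM) and APC anti-His (20 nM) antibodies bound to a PD-1-Ig/PD-L1-His complex. Both partners lack transmembrane regions.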
(In general: Time-resolved FRET reads energy transfer from a long-lived donor to a nearby acceptor.)

T2 sequence (Q9NZQ7 with tags, fused parts or gaps): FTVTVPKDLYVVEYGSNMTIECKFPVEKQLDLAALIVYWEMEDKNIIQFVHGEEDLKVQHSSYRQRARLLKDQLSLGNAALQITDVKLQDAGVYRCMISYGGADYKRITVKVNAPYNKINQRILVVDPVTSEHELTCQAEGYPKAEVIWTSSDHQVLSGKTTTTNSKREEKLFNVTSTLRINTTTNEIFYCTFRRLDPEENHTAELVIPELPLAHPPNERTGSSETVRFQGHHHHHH

`CCCC[C@H]1C(=O)N(C)[C@@H](CCCC)C(=O)N[C@@H](C)C(=O)N[C@H](C(=O)NCC(=O)O)CSCC(=O)N[C@@H](Cc2ccc(O)cc2)C(=O)N(C)[C@@H](C)C(=O)N[C@@H](CC(N)=O)C(=O)N2CCC[C@H]2C(=O)N[C@@H](Cc2cnc[nH]2)C(=O)N[C@@H](CC(C)C)C(=O)N[C@@H](CCCN)C(=O)N[C@@H](Cc2c[nH]c3ccccc23)C(=O)N[C@@H](CO)C(=O)N[C@@H](Cc2csc3ccccc23)C(=O)N1C` [Example 1153]: the IC50 was 4.78 to 72.9 nM in assay [1] and more than 30.5 nM on Human PD-L1/PD-1.

`CCCC[C@H]1C(=O)N(C)[C@@H](CCCC)C(=O)N[C@@H](C)C(=O)N[C@H](C(=O)NCC(=O)O)CSCC(=O)N[C@@H](Cc2ccc(O)cc2)C(=O)N(C)[C@@H](C)C(=O)N[C@@H](CC(N)=O)C(=O)N2CCC[C@H]2C(=O)N[C@@H](Cc2cnc[nH]2)C(=O)N[C@@H](CC(C)C)C(=O)N[C@@H](CCCN)C(=O)N[C@@H](Cc2c[nH]c3ccccc23)C(=O)N[C@@H](CO)C(=O)N[C@@H](Cc2c[nH]c3ccccc23)C(=O)N1C` [Example 1154]: the IC50 was more than 74.3 nM in assay [1] and 6.76 to 30.3 nM at Human PD-L1/PD-1.

Regarding `CCCC[C@H]1C(=O)N(C)[C@@H](CCCC)C(=O)N[C@@H](CCCNC(=N)N)C(=O)N[C@H](C(=O)NCC(N)=O)CSCC(=O)N[C@@H](Cc2ccc(O)cc2)C(=O)N(C)[C@@H](C)C(=O)N[C@@H](CCN)C(=O)N2CCC[C@H]2C(=O)N[C@@H](C)C(=O)N[C@@H](CCC(=O)O)C(=O)N2C[C@H](O)C[C@H]2C(=O)N[C@@H](Cc2c[nH]c3ccccc23)C(=O)N[C@@H](CO)C(=O)N[C@@H](Cc2c[nH]c3ccccc23)C(=O)N1C` [Example 1155] ({CH2CO}-Y[NMeA][Dab]PAE[Hyp]WSW[NMeNle][NMeNle]RCG-NH2; thioether N-14), the IC50 in assay [1] fell in the range of 4.78 to 72.9 nM; at Human PD-L1/PD-1 it was 6.76 to 30.3 nM.

With `CCCC[C@H]1C(=O)N(C)[C@@H](CCCC)C(=O)N[C@@H](C)C(=O)N[C@H](C(=O)NCC(N)=O)CSCC(=O)N[C@@H](Cc2ccc(O)cc2)C(=O)N(C)[C@@H](C)C(=O)N[C@@H](CC(=O)O)C(=O)N2CCC[C@H]2C(=O)N[C@@H](Cc2cnc[nH]2)C(=O)N[C@@H](CCCNC(C)=O)C(=O)N2C[C@H](O)C[C@H]2C(=O)N[C@@H](Cc2c[nH]c3ccccc23)C(=O)N[C@@H](CO)C(=O)N[C@@H](Cc2c[nH]c3ccccc23)C(=O)N1C` [Example 1156] ({CH2CO}-Y[NMeA]DPH[Orn](Ac)[Hyp]WSW[NMeNle][NMeNle]ACG-NH2; thioether N-14), the IC50 in assay [1] was in the range of 0.158 to 4.71 nM; at Human PD-L1/PD-1, 0.385 to 6.74 nM.

On to `CCCC[C@H]1C(=O)N(C)[C@@H](CCCC)C(=O)N[C@@H](CCCN)C(=O)N[C@H](C(=O)NCC(N)=O)CSCC(=O)N[C@@H](Cc2ccc(O)cc2)C(=O)N(C)[C@@H](C)C(=O)N[C@@H](CC(N)=O)C(=O)N2CCC[C@H]2C(=O)N[C@@H](Cc2c[nH]cn2)C(=O)N[C@@H](CC(C)C)C(=O)N2C[C@H](O)C[C@H]2C(=O)N[C@@H](Cc2c[nH]c3ccccc23)C(=O)N[C@@H](CCN)C(=O)N[C@@H](Cc2c[nH]c3ccccc23)C(=O)N1C` [Example 1157] ({CH2CO}-Y[NMeA]NPHL[Hyp]W[Dab]W[NMeNle][NMeNle][Orn]CG-NH2; thioether N-14), for which the IC50 in assay [1] lay within 0.158 to 4.71 nM; on Human PD-L1/PD-1, 6.76 to 30.3 nM.

Turning to `CCCC[C@H]1C(=O)N(C)[C@@H](CCCC)C(=O)N[C@@H](C)C(=O)N[C@H](C(=O)NCC(N)=O)CSCC(=O)N[C@@H](Cc2ccc(O)cc2)C(=O)N(C)[C@@H](C)C(=O)N[C@@H](CC(=O)O)C(=O)N2CCC[C@H]2C(=O)N[C@@H](CCN)C(=O)N[C@@H](CC(C)C)C(=O)N2C[C@H](O)C[C@H]2C(=O)N[C@@H](Cc2c[nH]c3ccccc23)C(=O)N[C@@H](CO)C(=O)N[C@@H](Cc2c[nH]c3ccccc23)C(=O)N1C` [Example 1158] ({CH2CO}-Y[NMeA]DP[Dab]L[Hyp]WSW[NMeNle][NMeNle]ACG-NH2; thioether N-14), the IC50 was 0.158 to 4.71 nM in assay [1] and 0.385 to 6.74 nM at Human PD-L1/PD-1.

As for `CCCC[C@H]1C(=O)N(C)[C@@H](CCCC)C(=O)N[C@@H](CCCNC(=N)N)C(=O)N[C@H](C(=O)NCC(N)=O)CSCC(=O)N[C@@H](Cc2ccc(O)cc2)C(=O)N(C)[C@@H](C)C(=O)N[C@@H](CC(N)=O)C(=O)N2CCC[C@H]2C(=O)N[C@@H](Cc2cnc[nH]2)C(=O)N[C@@H](CCC(=O)O)C(=O)N2C[C@H](O)C[C@H]2C(=O)N[C@@H](Cc2c[nH]c3ccccc23)C(=O)N[C@@H](CO)C(=O)N[C@@H](Cc2c[nH]c3ccccc23)C(=O)N1C` [Example 1159] ({CH2CO}-Y[NMeA]NPHE[Hyp]WSW[NMeNle][NMeNle]RCG-NH2; thioether N-14), the IC50 in assay [1] was 0.158 to 4.71 nM; at Human PD-L1/PD-1, 6.76 to 30.3 nM.

In the case of `CCCC[C@H]1C(=O)N(C)[C@@H](CCCC)C(=O)N[C@@H](CN)C(=O)N[C@H](C(=O)NCC(N)=O)CSCC(=O)N[C@@H](Cc2ccc(O)cc2)C(=O)N(C)[C@@H](C)C(=O)N[C@@H](CC(N)=O)C(=O)N2CCC[C@H]2C(=O)N[C@@H](CN)C(=O)N[C@@H](CC(C)C)C(=O)N2C[C@H](O)C[C@H]2C(=O)N[C@@H](Cc2c[nH]c3ccccc23)C(=O)N[C@@H](CO)C(=O)N[C@@H](Cc2csc3ccccc23)C(=O)N1C` [Example 1161] ({CH2CO}-Y[NMeA]NP[Dap]L[Hyp]WS[Bta][NMeNle][NMeNle][Dap]CG-NH2; thioether N-14), the IC50 lay in the range of 0.158 to 4.71 nM in assay [1] and 0.385 to 6.74 nM at Human PD-L1/PD-1.

Turning to `CCCC[C@H]1C(=O)N(C)[C@@H](CCCC)C(=O)N[C@@H](CN)C(=O)N[C@H](C(=O)NCC(N)=O)CSCC(=O)N[C@@H](Cc2ccc(O)cc2)C(=O)N(C)[C@@H](C)C(=O)N[C@@H](CC(N)=O)C(=O)N2CCC[C@H]2C(=O)N[C@@H](CN)C(=O)N[C@@H](CCC(=O)O)C(=O)N2C[C@H](O)C[C@H]2C(=O)N[C@@H](Cc2c[nH]c3ccccc23)C(=O)N[C@@H](CO)C(=O)N[C@@H](Cc2csc3ccccc23)C(=O)N1C` [Example 1162] ({CH2CO}-Y[NMeA]NP[Dap]E[Hyp]WS[Bta][NMeNle][NMeNle][Dap]CG-NH2; thioether N-14), the IC50 was in the range of 0.158 to 4.71 nM in assay [1] and 0.385 to 6.74 nM at Human PD-L1/PD-1.

Turning to `CCCC[C@H]1C(=O)N(C)[C@@H](CCCC)C(=O)N[C@@H](C)C(=O)N[C@H](C(=O)NCC(N)=O)CSCC(=O)N[C@@H](Cc2ccc(O)cc2)C(=O)N(C)[C@@H](C)C(=O)N[C@@H](CCC(=O)O)C(=O)N2CCC[C@H]2C(=O)N[C@@H](Cc2cnc[nH]2)C(=O)N[C@@H](CC(C)C)C(=O)N2CCC[C@H]2C(=O)N[C@@H](Cc2c[nH]c3ccccc23)C(=O)N[C@@H](CO)C(=O)N[C@@H](Cc2c[nH]c3ccccc23)C(=O)N1C` [Example 1164] ({CH2CO}-Y[NMeA]EPHLPWSW[NMeNle][NMeNle]ACG-NH2; thioether N-14), the half-inhibitory concentration (IC50) was in the range of 4.78 to 72.9 nM in assay [1] and 6.76 to 30.3 nM at Human PD-L1/PD-1.

With `CCCC[C@H]1C(=O)N(C)[C@@H](CCCC)C(=O)N[C@@H](C)C(=O)N[C@H](C(=O)NCC(N)=O)CSCC(=O)N[C@@H](Cc2ccc(O)cc2)C(=O)N(C)[C@@H](C)C(=O)N[C@@H](CC(=O)O)C(=O)N2CCC[C@H]2C(=O)N[C@@H](Cc2cnc[nH]2)C(=O)N[C@@H](CC(C)C)C(=O)N2C[C@H](O)C[C@H]2C(=O)N[C@@H](Cc2c[nH]c3ccccc23)C(=O)N[C@@H](CO)C(=O)N[C@@H](Cc2c[nH]c3ccccc23)C(=O)N1C` [Example 1165], the IC50 in assay [1] was in the range of 0.158 to 4.71 nM; on Human PD-L1/PD-1, 0.385 to 6.74 nM.
